Measurements reported in ChEMBL document CHEMBL1201862, “PubChem BioAssay data set” (2004).
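The compound was tested at five concentrations on cells cultured in 96-well plates, with a 48-hour exposure period. At the GI50, growth is halved.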 Active and inactive are the calls of the source. No stated cut-off is given here; in the data, active = GI50 up to about 1.1 µM and inactive = higher.

Key:
Assay in all cases: NCI-60 cell line screen, 48 h
[1] = system: DU-145
[2] = system: EKVX
[3] = system: IGROV-1
[4] = system: KM12
[5] = system: MCF7
[6] = system: MDA-MB-435
[7] = system: NCI-H226
[8] = system: NCI-H522
[9] = system: OVCAR-4
[10] = system: OVCAR-5
[11] = system: RPMI-8226
[12] = system: SF-268
[13] = system: SK-MEL-5
[14] = system: SK-OV-3
[15] = system: SR
[16] = system: T47D
[17] = system: TK-10
[18] = system: U-251
[19] = system: UACC-257

| SMILES | GI50 [1] | GI50 [2] | GI50 [3] | GI50 [4] | GI50 [5] | GI50 [6] | GI50 [7] | GI50 [8] | GI50 [9] | GI50 [10] | GI50 [11] | GI50 [12] | GI50 [13] | GI50 [14] | GI50 [15] | GI50 [16] | GI50 [17] | GI50 [18] | GI50 [19] |
| --- | --- | --- | --- | --- | --- | --- | --- | --- | --- | --- | --- | --- | --- | --- | --- | --- | --- | --- | --- |
| CSc1c(C)[n+]([O-])c2cc(Cl)c(Cl)cc2[n+]1[O-] | 16.9 µM (inactive) | 16.3 µM (inactive) | 14 µM (inactive) | 31.4 µM (inactive) | 19 µM (inactive) | 18.5 µM (inactive) | 13.1 µM (inactive) | 12.2 µM (inactive) | 16.4 µM (inactive) | 17.4 µM (inactive) | 9.73 µM (inactive) | 18.5 µM (inactive) | 17.7 µM (inactive) | > 100 µM (inactive) | 3.13 µM (inactive) | 20.8 µM (inactive) | 20.6 µM (inactive) | 21.9 µM (inactive) | 17.9 µM (inactive) |
| Cc1csc2c(P(=O)(OC(C)C)OC(C)C)c(-c3ccccc3)cn12 | 18.5 µM (inactive) | 17.2 µM (inactive) | 15.4 µM (inactive) | 16.8 µM (inactive) | 17.7 µM (inactive) | 21.5 µM (inactive) | – | 15.3 µM (inactive) | 17.5 µM (inactive) | 14.6 µM (inactive) | 16.3 µM (inactive) | 16.6 µM (inactive) | 16.2 µM (inactive) | 18.5 µM (inactive) | 16.6 µM (inactive) | 3.84 µM (inactive) | 11.5 µM (inactive) | 16 µM (inactive) | 14 µM (inactive) |
| COc1ccc(/C(=N/O)c2ccccc2-c2nc3ccccc3c(=O)n2-c2ccc(S(=O)(=O)Nc3ncccn3)cc2)cc1C | 21.1 µM (inactive) | 16.5 µM (inactive) | 17.8 µM (inactive) | 18.1 µM (inactive) | 13.2 µM (inactive) | 14.9 µM (inactive) | > 10 µM (inactive) | 14.2 µM (inactive) | 17.9 µM (inactive) | 24.5 µM (inactive) | 14.6 µM (inactive) | 16.7 µM (inactive) | 12.8 µM (inactive) | 6.81 µM (inactive) | 15.3 µM (inactive) | 12.6 µM (inactive) | 21.8 µM (inactive) | 11.8 µM (inactive) | 17.1 µM (inactive) |
| CCCCCCCCCCCCCCCCNC(=O)/C(O)=C/C(=O)c1ccc(C)cc1 | > 10 µM (inactive) | > 10 µM (inactive) | > 10 µM (inactive) | > 10 µM (inactive) | > 10 µM (inactive) | > 10 µM (inactive) | > 10 µM (inactive) | > 10 µM (inactive) | > 10 µM (inactive) | > 10 µM (inactive) | > 10 µM (inactive) | > 10 µM (inactive) | > 10 µM (inactive) | > 10 µM (inactive) | > 10 µM (inactive) | > 10 µM (inactive) | > 10 µM (inactive) | > 10 µM (inactive) | > 10 µM (inactive) |
| CC(C)(C)C(=O)CC1(O)C=C(O)C(O)(CC(=O)C(C)(C)C)O1 (centres undefined) | 50.2 µM (inactive) | 61.1 µM (inactive) | 7.13 µM (inactive) | 63.5 µM (inactive) | 24.8 µM (inactive) | 41.9 µM (inactive) | 18.3 µM (inactive) | 20.4 µM (inactive) | 12.8 µM (inactive) | > 100 µM (inactive) | 19.7 µM (inactive) | 11.6 µM (inactive) | 21.2 µM (inactive) | 29.9 µM (inactive) | 4.55 µM (inactive) | > 100 µM (inactive) | 82.2 µM (inactive) | 36.8 µM (inactive) | 42.3 µM (inactive) |
| N#Cc1c(-c2ccc(Cl)cc2)cc(-c2ccc(Nc3ccnc4cc(C(F)(F)F)ccc34)cc2)nc1N | 28.1 µM (inactive) | 67 µM (inactive) | 29.2 µM (inactive) | > 100 µM (inactive) | 28.8 µM (inactive) | 19.5 µM (inactive) | 24.7 µM (inactive) | 31.4 µM (inactive) | 17.9 µM (inactive) | 30.2 µM (inactive) | 23.4 µM (inactive) | 39.1 µM (inactive) | 25.3 µM (inactive) | 39.6 µM (inactive) | 3.74 µM (inactive) | 18.5 µM (inactive) | 31.2 µM (inactive) | 18.7 µM (inactive) | > 100 µM (inactive) |
| C=C(CN(CC)CC)C1(c2ccccc2)CC2(CCCC2)C(=O)O1 (centres undefined) | > 100 µM (inactive) | > 100 µM (inactive) | > 100 µM (inactive) | > 100 µM (inactive) | > 100 µM (inactive) | > 100 µM (inactive) | 48 µM (inactive) | 35 µM (inactive) | > 100 µM (inactive) | > 100 µM (inactive) | 76.2 µM (inactive) | > 100 µM (inactive) | 68.4 µM (inactive) | > 100 µM (inactive) | > 100 µM (inactive) | > 100 µM (inactive) | > 100 µM (inactive) | > 100 µM (inactive) | 34.4 µM (inactive) |
| COC(=O)C(Cc1ccccc1)NC(=O)C(CCCNC(=N)N)NC(=O)OCc1ccccc1 (centres undefined) | > 100 µM (inactive) | > 100 µM (inactive) | > 100 µM (inactive) | > 100 µM (inactive) | > 100 µM (inactive) | > 100 µM (inactive) | > 100 µM (inactive) | > 100 µM (inactive) | > 100 µM (inactive) | > 100 µM (inactive) | > 100 µM (inactive) | > 100 µM (inactive) | > 100 µM (inactive) | > 100 µM (inactive) | > 100 µM (inactive) | > 100 µM (inactive) | > 100 µM (inactive) | > 100 µM (inactive) | – |
| O=C(OCc1ccccc1)N1CCNCCN(C(=O)OCc2ccccc2)CCNCC1 | 95.7 µM (inactive) | 28 µM (inactive) | 32.2 µM (inactive) | 26 µM (inactive) | 17.7 µM (inactive) | 24 µM (inactive) | 36.9 µM (inactive) | 16.3 µM (inactive) | 40.4 µM (inactive) | 32.2 µM (inactive) | 20.2 µM (inactive) | – | 13.4 µM (inactive) | 49.8 µM (inactive) | 86.1 µM (inactive) | 0.254 µM (active) | 91.8 µM (inactive) | 22 µM (inactive) | 21.4 µM (inactive) |
| C/C(CC(O)(C(F)(F)F)C(F)(F)F)=N\NC(N)=S | > 10 µM (inactive) | > 10 µM (inactive) | > 10 µM (inactive) | > 10 µM (inactive) | > 10 µM (inactive) | > 10 µM (inactive) | > 10 µM (inactive) | > 10 µM (inactive) | > 10 µM (inactive) | – | > 10 µM (inactive) | > 10 µM (inactive) | > 10 µM (inactive) | > 10 µM (inactive) | > 10 µM (inactive) | > 10 µM (inactive) | > 10 µM (inactive) | > 10 µM (inactive) | > 10 µM (inactive) |
| S=C(NCCc1ccccn1)N/N=C/c1ccccn1 | 1.48 µM (inactive) | 0.0243 µM (active) | < 0.01 µM (active) | 0.106 µM (active) | < 0.01 µM (active) | 4.09 µM (inactive) | 0.0598 µM (active) | < 0.01 µM (active) | 0.519 µM (active) | < 0.018 µM (active) | < 0.01 µM (active) | 0.301 µM (active) | 0.182 µM (active) | 1.12 µM (active) | < 0.01 µM (active) | < 0.01 µM (active) | 0.42 µM (active) | – | < 0.0113 µM (active) |
